The target in the test is T1, MNK2 (Homo sapiens, UniProt Q9HBH9).
T1 construct: the open reading frames of human Mnk1 and Mnk2a were amplified from cDNA; made in house; host or cells: E. coli BL21
T1 sequence (Q9HBH9 whole entry): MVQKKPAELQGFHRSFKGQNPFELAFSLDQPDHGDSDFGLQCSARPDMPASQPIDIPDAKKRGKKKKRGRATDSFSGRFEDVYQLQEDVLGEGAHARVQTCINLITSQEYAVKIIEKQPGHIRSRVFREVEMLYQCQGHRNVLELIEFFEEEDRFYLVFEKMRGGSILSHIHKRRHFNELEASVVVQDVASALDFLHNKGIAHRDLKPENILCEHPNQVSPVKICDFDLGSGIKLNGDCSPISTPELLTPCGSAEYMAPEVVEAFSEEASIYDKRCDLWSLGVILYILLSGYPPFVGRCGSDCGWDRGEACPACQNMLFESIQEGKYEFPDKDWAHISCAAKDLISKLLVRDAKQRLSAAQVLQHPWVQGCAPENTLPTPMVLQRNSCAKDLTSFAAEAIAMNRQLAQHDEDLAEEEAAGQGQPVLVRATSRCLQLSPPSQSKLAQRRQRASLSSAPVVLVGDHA
In words: Mnk2a in vitro kinase assay (indirect fluorescence polarization). It is filed as biochemical. The note with it: pre-activated GST-Mnk2a 2.5 nM, 20 μM ATP, 30 μM substrate peptide. Put shortly:
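Human GST-Mnk2a was expressed in E. coli and activated in vitro with 150 nM pre-activated ERK2 and 50 μM ATP in HEPES pH 7.4/MgCl2 buffer (45 min, 30 °C). Activity on an eIF4E Ser209-derived 12mer peptide was read by competitive fluorescence polarization with a phospho-specific antibody.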
For orientation: IC50 means the concentration needed to halve the response being measured. A higher IC50 goes with weaker potency in that assay. `CC(=O)N(C)[C@H]1CC[C@H](Oc2cc(F)ccc2Nc2ncnc3sc(C(N)=O)c(C)c23)C1` [Example 240, 4-{2-[(1S,3S)-3-(Acetyl-methyl-amino)-cyclopentyloxy]-4-fluoro-phenylamino}-5-methyl-thieno[2,3-d]pyrimidine-6-carboxylic acid amide] displayed an IC50 of 13 nM.

Compound `CC(=O)N[C@H]1C[C@H](Oc2cc(F)ccc2Nc2ncnc3sc(C(=O)NCC#N)c(C)c23)C1` [Example 241, 4-[2-(trans-3-Acetylamino-cyclobutoxy)-4-fluoro-phenylamino]-5-methyl-thieno[2,3-d]pyrimidine-6-carboxylic acid cyanomethyl-amide] gave an IC50 of 49 nM.

With `Cc1c(C(N)=O)sc2ncnc(Nc3ccc(F)cc3OC3CCC3)c12` [Example 243, 4-(2-Cyclobutoxy-4-fluoro-phenylamino)-5-methyl-thieno[2,3-d]pyrimidine-6-carboxylic acid amide], inhibition was half-maximal at 9 nM (IC50).

`Cc1c(C(N)=O)sc2ncnc(Nc3ccc(F)cc3OC3CCCC3)c12` [Example 244, 4-(2-Cyclopentoxy-4-fluoro-phenylamino)-5-methyl-thieno[2,3-d]pyrimidine-6-carboxylic acid amide]: the IC50 came out at 2 nM.

For `CC(=O)N[C@H]1C[C@H](Oc2cc(F)ccc2Nc2ncnc3sc(C(=O)NCC#CCN(C)C)c(C)c23)C1` [Example 245, 4-[2-(trans-3-Acetylamino-cyclobutoxy)-4-fluoro-phenylamino]-5-methyl-thieno[2,3-d]pyrimidine-6-carboxylic acid (4-dimethylamino-but-2-ynyl)-amide], the IC50 turned out to be 39 nM.

In turn, `CC(=O)N[C@H]1C[C@H](Oc2cc(F)ccc2Nc2ncnc3sc(C(=O)N[C@H]4C[C@@H]4N)c(C)c23)C1` [Example 246, 4-[2-(trans-3-Acetylamino-cyclobutoxy)-4-fluoro-phenylamino]-5-methyl-thieno[2,3-d]pyrimidine-6-carboxylic acid (2-amino-cyclopropyl)-amide] came in with an IC50 of 65 nM.

For `COC(=O)c1sc2ncnc(Nc3ccc(F)cc3O[C@@H]3CCCC[C@H]3OC)c2c1C` [Example 247, 4-[4-Fluoro-2-((1R,2R)-2-methoxy-cyclohexyloxy)-phenylamino]-5-methyl-thieno[2,3-d]pyrimidine-6-carboxylic acid methyl ester], the IC50 was determined as 139 nM.

As to `CO[C@@H]1CCCC[C@H]1Oc1cc(F)ccc1Nc1ncnc2sc(C(=O)O)c(C)c12` [Example 248, 4-[4-Fluoro-2-((1R,2R)-2-methoxy-cyclohexyloxy)-phenylamino]-5-methyl-thieno[2,3-d]pyrimidine-6-carboxylic acid], the IC50 worked out at 10 nM.

The compound `CO[C@@H]1CCCC[C@H]1Oc1cc(F)ccc1Nc1ncnc2sc(C(N)=O)c(C)c12` [Example 249, 4-[4-Fluoro-2-((1R,2R)-2-methoxy-cyclohexyloxy)-phenylamino]-5-methyl-thieno[2,3-d]pyrimidine-6-carboxylic acid amide] came in with a concentration for half-maximal inhibition (IC50) of 6 nM.

`COC1CCCCC1Oc1cc(F)ccc1Nc1ncnc2sc(C(=O)NC3CCCC3O)c(C)c12` (stereo not drawn) [Example 250] displayed an IC50 of 19 nM.

On to `CO[C@@H]1CCCC[C@H]1Oc1cc(F)ccc1Nc1ncnc2sc(C(=O)N[C@@H]3CCC[C@H]3O)c(C)c12` [Example 251], for which half-maximal inhibition (IC50) was put at 20 nM.

On to `CO[C@@H]1CCCC[C@H]1Oc1cc(F)ccc1Nc1ncnc2sc(C(=O)NCCSC)c(C)c12` [Example 252], for which the IC50 is 18 nM.

Compound `CO[C@@H]1CCCC[C@H]1Oc1cc(F)ccc1Nc1ncnc2sc(C(=O)NCCCN3CCCC3)c(C)c12` [Example 254] registered an IC50 of 11 nM.

`CO[C@@H]1CCCC[C@H]1Oc1cc(F)ccc1Nc1ncnc2sc(C(=O)NCC[S+](C)[O-])c(C)c12` (stereo partly drawn) [Example 255] showed an IC50 of 14 nM.

As for `Cc1c(C(=O)NCCCN2CCCC2)sc2ncnc(Nc3ccc(F)cc3OC3CCCCC3O)c12` (stereo not drawn) [Example 263], the IC50 is 175 nM.

Turning to `Cc1c(C(=O)NCCO)sc2ncnc(Nc3cccnc3O[C@H]3CC[C@H](O)CC3)c12` [Example 266, 4-[2-(trans-4-hydroxy-cyclohexyloxy)-pyridine-3-ylamino]-5-methyl-thieno[2,3-d]pyrimidine-6-carboxylic acid (2-hydroxy-ethyl)-amide], the IC50 came out at 15 nM.

As for `Cc1c(C(=O)NCC#CCN(C)C)sc2ncnc(Nc3cccnc3O[C@H]3CC[C@H](O)CC3)c12` [Example 267], the IC50 worked out at 10 nM.

Turning to `Cc1c(C(=O)NCCCN2CCCC2)sc2ncnc(Nc3cccnc3O[C@H]3CC[C@H](O)CC3)c12` [Example 268], 14 nM corresponded to half-maximal inhibition (IC50).

Turning to `Cc1c(C(=O)NC2CCN(C)CC2)sc2ncnc(Nc3cccnc3O[C@H]3CC[C@H](O)CC3)c12` [Example 269], 24 nM corresponded to half-maximal inhibition (IC50).

The compound `Cc1c(C(=O)NCCCN2CCC2)sc2ncnc(Nc3cccnc3O[C@H]3CC[C@H](O)CC3)c12` [Example 270] registered an IC50 of 58 nM.

Turning to `Cc1c(C(=O)NCCCN2CCCC2=O)sc2ncnc(Nc3ccc(F)cc3O[C@H]3CC[C@H](O)CC3)c12` [Example 271, 4-[4-Fluoro-2-(trans-4-hydroxy-cyclohexyloxy)-phenylamino]-5-methyl-thieno[2,3-d]pyrimidine-6-carboxylic acid [3-(2-oxo-pyrrolidin-1-yl)-propyl]amide], the IC50 came to 12 nM.

Turning to `CO[C@H]1CC[C@H](Oc2cc(F)ccc2Nc2ncnc3sc(C(=O)NCCCN4CCCCC4)c(C)c23)CC1` [Example 275], the IC50 is 10 nM.

For the compound `CCN(CC)CCCNC(=O)c1sc2ncnc(Nc3ccc(F)cc3O[C@H]3CC[C@H](OC)CC3)c2c1C` [Example 276], the midpoint of inhibition, the IC50, lay at 12 nM.

In turn, `CO[C@H]1CC[C@H](Oc2cc(F)ccc2Nc2ncnc3sc(C(=O)NCC(O)CN(C)C)c(C)c23)CC1` (stereo partly drawn) [Example 277] came in with an IC50 of 13 nM.

The compound `CO[C@H]1CC[C@H](Oc2cc(F)ccc2Nc2ncnc3sc(C(=O)NCCCN(CCO)CCO)c(C)c23)CC1` [Example 278] came in with a half-maximal inhibitory concentration (IC50) of 7 nM.

`CO[C@H]1CC[C@H](Oc2cc(F)ccc2Nc2ncnc3sc(C(=O)NCCCN4CCCC4=O)c(C)c23)CC1` [Example 279] registered an IC50 of 11 nM.

Compound `CO[C@H]1CC[C@H](Oc2cc(F)ccc2Nc2ncnc3sc(C(=O)NCCCN4C(=O)CCC4=O)c(C)c23)CC1` [Example 280] had a half-inhibitory concentration (IC50) of 9 nM.

`COC(=O)c1sc2ncnc(Nc3cccnc3O[C@H]3CC[C@H](N)CC3)c2c1C` [Example 281, 4-[2-(4-Amino-cyclohexyloxy)-pyridin-3-ylamino]-5-methyl-thieno[2,3-d]pyrimidine-6-carboxylic acid methyl ester] registered an IC50 of 66 nM.

In the case of `Cc1c(C(=O)O)sc2ncnc(Nc3cccnc3O[C@H]3CC[C@H](N)CC3)c12` [Example 282, 4-[2-(4-Amino-cyclohexyloxy)-pyridin-3-ylamino]-5-methyl-thieno[2,3-d]pyrimidine-6-carboxylic acid], 11 nM corresponded to half-maximal inhibition (IC50).

Consider `Cc1c(C(N)=O)sc2ncnc(Nc3cccnc3O[C@H]3CC[C@H](N)CC3)c12` [Example 283, 4-[2-(4-Amino-cyclohexyloxy)-pyridin-3-ylamino]-5-methyl-thieno[2,3-d]pyrimidine-6-carboxylic acid amide], for which the half-maximal inhibitory concentration (IC50) amounted to 6 nM.

As for `CCNC(=O)c1sc2ncnc(Nc3cccnc3O[C@H]3CC[C@H](N)CC3)c2c1C` [Example 284], the midpoint of inhibition, the IC50, lay at 10 nM.

On to `CNC(=O)c1sc2ncnc(Nc3cccnc3O[C@H]3CC[C@H](N)CC3)c2c1C` [Example 285], for which the IC50 came to 9 nM.

With `CCCCNC(=O)c1sc2ncnc(Nc3cccnc3O[C@H]3CC[C@H](N)CC3)c2c1C` [Example 286], inhibition was half-maximal at 4 nM (IC50).

In the case of `Cc1c(C(=O)NC(C)C)sc2ncnc(Nc3cccnc3O[C@H]3CC[C@H](N)CC3)c12` [Example 287], the IC50 amounted to 5 nM.

On to `Cc1c(C(=O)NCCO)sc2ncnc(Nc3cccnc3O[C@H]3CC[C@H](N)CC3)c12` [Example 288], for which the IC50 is 19 nM.

`CCCNC(=O)c1sc2ncnc(Nc3cccnc3O[C@H]3CC[C@H](N)CC3)c2c1C` [Example 289, 4-[2-(4-Amino-cyclohexyloxy)-pyridin-3-ylamino]-5-methyl-thieno[2,3-d]pyrimidine-6-carboxylic acid propyl amide] gave an IC50 of 2 nM.

`Cc1c(C(=O)O)sc2ncnc(Nc3ccc(F)cc3O[C@H]3C[C@@H]4OCO[C@@H]4C3)c12` [Example 290, 4-[4-Fluoro-2-(tetrahydro-cyclopenta[1,3]dioxol-5-yloxy)phenylamino]-5-methyl-thieno[2,3-d]pyrimidine-6-carboxylic acid]: the IC50 is 8 nM.

For `Cc1c(C(=O)NCCCN2CCCC2)sc2ncnc(Nc3ccc(F)cc3O[C@H]3C[C@@H]4OCO[C@@H]4C3)c12` [Example 291, 4-[4-Fluoro-2-(tetrahydro-cyclopenta[1,3]dioxol-5-yloxy)phenylamino]-5-methyl-thieno[2,3-d]pyrimidine-6-carboxylic acid (3-pyrrolidin-1-yl-propyl)-amide], the IC50 came out at 19 nM.

Take `Cc1c(C(=O)NC2CCN(C)CC2)sc2ncnc(Nc3ccc(F)cc3O[C@H]3C[C@@H]4OCO[C@@H]4C3)c12` [Example 292]: the IC50 is 46 nM.

`Cc1c(C(N)=O)sc2ncnc(Nc3ccc(F)cc3O[C@H]3CCC[C@@H]3NC(=O)C3CC3)c12` [Example 293, (1S,2S) 4-{2-[2-(Cyclopropanecarbonyl-amino)-cyclopentyloxy]-4-fluoro-phenylamino}-5-methyl thieno[2,3-d]pyrimidine-6-carboxylic acid amide] displayed a half-inhibitory concentration (IC50) of 377 nM.

In turn, `COC(=O)N[C@H]1CCC[C@@H]1Oc1cc(F)ccc1Nc1ncnc2sc(C(N)=O)c(C)c12` [Example 294] yielded an IC50 of 183 nM.

`CC(=O)N[C@H]1CCC[C@@H]1Oc1cc(F)ccc1Nc1ncnc2sc(C(N)=O)c(C)c12` [Example 295, (1S,2S) 4-{2-[2-(Acetyl-amino)-cyclopentyloxy]-4-fluoro-phenylamino}-5-methyl thieno[2,3-d]pyrimidine-6-carboxylic acid amide] yielded an IC50 of 95 nM.

Values taken from patent US8754079B2, “Cycloalkyl containing thienopyrimidines for pharmaceutical compositions” (Boehringer Ingelheim International GmbH, priority 2010, dated 2014).
